≈ marks a conversion by molar mass, not a printed value. Where two headings read alike, the source gives them in different places.
Assays:
[1] = system: Fusarium moniliforme (Fm); experiment: Growth inhibition assay of fungal pathogens, Fm; assay type: cell-based; details: for Concentration at 90% Inhibition Fm: Fusarium moniliforme, growth inhibition at 48 hours vs 2% DMSO control; for IC90: Fusarium verticillioides, 48 h, read-out: Concentration at 90% Inhibition Fm
In short: (§1)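 Spores diluted in 17% V8 liquid media and incubated with compound at final 50, 10, 2 ppm or 2, 0.4, 0.08 ppm (2% DMSO). OD600 plus visual ratings at 24 and 48 hours, blank-subtracted; percent growth inhibition from 48 h readings relative to 2% DMSO control.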

Septoria tritici (St) = experiment: Growth inhibition assay of fungal pathogens, St; assay type: cell-based; details: Zymoseptoria tritici, 48 h, read-out: Concentration at 90% Inhibition St, Septoria tritici
In short: as §1

Diplodia maydis (Dm) = experiment: Growth inhibition assay of fungal pathogens, Dm; assay type: cell-based; details: Stenocarpella maydis, 48 h, read-out: Concentration at 90% Inhibition Dm, Diplodia maydis
In short: as §1

C. krusei = experiment: Antifungal Activity Assay (broth microtiter MIC), C. krusei; assay type: cell-based, Candida krusei; details: Pichia kudriavzevii, ATCC6258, 48 h
In short: (§2)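 CLSI M27-A3 microdilution; RPMI 1640+MOPS; 2.5×10^3 CFU/mL final inoculum; cultures from Sabouraud dextrose agar, 35° C overnight; compound working solution 128 μg/mL from 1 mg/mL DMSO stock; visual MIC at 48 h vs growth control.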

C. albicans = experiment: Antifungal Activity Assay (broth microtiter MIC), C. albicans; assay type: cell-based, Candida albicans; details: Candida albicans, ATCC90028, 48 h
In short: as §2

C. parapsilosis = experiment: Antifungal Activity Assay (broth microtiter MIC), C. parapsilosis; assay type: cell-based, Candida parapsilosis; details: Lodderomyces parapsilosis, ATCC22019, 48 h
In short: as §2

[2] = system: Collectotrichum graminicola (Cg); experiment: Growth inhibition assay of fungal pathogens, Cg; assay type: cell-based; details: 48 h, read-out: Concentration at 90% Inhibition Cg, Collectotrichum graminicola
In short: as §1

Botrtyis cinerea (Bc) = experiment: Growth inhibition assay of fungal pathogens, Bc; assay type: cell-based; details: 48 h, read-out: Concentration at 90% Inhibition Bc, Botrtyis cinerea
In short: as §1

[3] = system: Fusarium virguliforme (Fv); experiment: Growth inhibition assay of fungal pathogens, Fv; assay type: cell-based; details: 48 h
In short: as §1

[4] = system: Phytophthora capsici (Pc); experiment: Growth inhibition assay of fungal pathogens, Pc; assay type: cell-based; details: 48 h
In short: as §1

[5] = growth inhibition at 48 hours vs 2% DMSO control
[6] = growth inhibition vs 2% DMSO control at 48 hours
[7] = read-out: MIC, C. krusei ATCC 6258, Table 3a, 3 replicates, MIC recorded at 48 h
[8] = read-out: MIC, C. krusei ATCC 6258, Table 3b (additional results), 3 replicates, MIC recorded at 48 h
[9] = read-out: MIC, C. albicans ATCC 90028, Table 3a, 3 replicates, MIC recorded at 48 h
[10] = read-out: MIC, C. albicans ATCC 90028, Table 3b (additional results), 3 replicates, MIC recorded at 48 h
[11] = read-out: MIC, C. parapsilosis ATCC 22019, Table 3a, 3 replicates, MIC recorded at 48 h
[12] = read-out: MIC, C. parapsilosis ATCC 22019, Table 3b (additional results), 3 replicates, MIC recorded at 48 h
[13] = read-out: Concentration at 90% Inhibition Fv, Fusarium virguliforme, growth inhibition at 48 hours vs 2% DMSO control
[14] = read-out: Concentration at 90% Inhibition Fv, Fusarium virguliforme, growth inhibition vs 2% DMSO control at 48 hours
[15] = read-out: Concentration at 90% Inhibition Pc, Phytophthora capsici, growth inhibition at 48 hours vs 2% DMSO control
[16] = read-out: Concentration at 90% Inhibition Pc, Phytophthora capsici, growth inhibition vs 2% DMSO control at 48 hours

Row | Structure (SMILES) | Concentration at 90% Inhibition Fm [1] | IC90 [1] [µg/mL] | IC90 (Septoria tritici (St); [5]) [µg/mL] | IC90 (Septoria tritici (St); [6]) [µg/mL] | IC90 (Diplodia maydis (Dm); [5]) [µg/mL] | IC90 (Diplodia maydis (Dm); [6]) [µg/mL] | MIC (C. krusei; [7]) [µg/mL] | MIC (C. krusei; [8]) [µg/mL] | MIC (C. albicans; [9]) [µg/mL] | MIC (C. albicans; [10]) [µg/mL] | MIC (C. parapsilosis; [11]) [µg/mL] | MIC (C. parapsilosis; [12]) [µg/mL] | IC90 [2, 5] [µg/mL] | IC90 [2, 6] [µg/mL] | IC90 (Botrtyis cinerea (Bc); [5]) [µg/mL] | IC90 (Botrtyis cinerea (Bc); [6]) [µg/mL] | IC90 [3, 13] [µg/mL] | IC90 [3, 14] [µg/mL] | IC90 [4, 15] [µg/mL] | IC90 [4, 16] [µg/mL]
1 | COc1ccc(F)cc1[C@H](Cn1c(=O)n(C(C)(C)C(=O)N2CCOCC2)c(=O)c2c(C)c(-n3nccn3)sc21)OC(C)C [Compound I-5, (R)-1-(2-(5-fluoro-2-methoxyphenyl)-2-isopropoxyethyl)-5-methyl-3-(2-methyl-1-morpholino-1-oxopropan-2-yl)-6-(2H-1,2,3-triazol-2-yl)thieno[2,3-d]pyrimidine-2,4(1H,3H)-dione] | AA (compound concentration of 0.08 ppm at 90% inhibition of fungal pathogens) | 0.08 (≈ 0.13 µM) | 10 (≈ 16.3 µM) | > 50 | 2 (≈ 3.25 µM) | 2 (≈ 3.25 µM) | 1.1 to 2 (≈ 1.79 to 3.25 µM) | 2.01 to 4 (≈ 3.27 to 6.51 µM) | 2.1 to 4 (≈ 3.42 to 6.51 µM) | 2.01 to 4 (≈ 3.27 to 6.51 µM) | 2.1 to 4 (≈ 3.42 to 6.51 µM) | > 4.01 | 2 (≈ 3.25 µM) | 2 (≈ 3.25 µM) | 0.4 (≈ 0.651 µM) | 0.4 (≈ 0.651 µM) | 0.4 (≈ 0.651 µM) | 0.4 (≈ 0.651 µM) | > 50 | > 50
2 | COc1ccc(F)cc1[C@H](Cn1c(=O)n(C(C)(C)C(=O)N2CCCCC2)c(=O)c2c(C)c(-n3nccn3)sc21)OC(C)C [Compound I-6, (R)-1-(2-(5-fluoro-2-methoxyphenyl)-2-isopropoxyethyl)-5-methyl-3-(2-methyl-1-oxo-1-(piperidin-1-yl)propan-2-yl)-6-(2H-1,2,3-triazol-2-yl)thieno[2,3-d]pyrimidine-2,4(1H,3H)-dione] | AA (compound concentration of 0.08 ppm at 90% inhibition of fungal pathogens) | 0.08 (≈ 0.131 µM) | 2 (≈ 3.26 µM) | 10 (≈ 16.3 µM) | 0.08 (≈ 0.131 µM) | 0.08 (≈ 0.131 µM) | 0.25 to 1 (≈ 0.408 to 1.63 µM) | 0.25 to 1 (≈ 0.408 to 1.63 µM) | 0.25 to 1 (≈ 0.408 to 1.63 µM) | 0.25 to 1 (≈ 0.408 to 1.63 µM) | 1.1 to 2 (≈ 1.8 to 3.26 µM) | 1.01 to 2 (≈ 1.65 to 3.26 µM) | 0.08 (≈ 0.131 µM) | 0.08 (≈ 0.131 µM) | 0.08 (≈ 0.131 µM) | 0.08 (≈ 0.131 µM) | 0.08 (≈ 0.131 µM) | 0.08 (≈ 0.131 µM) | > 50 | > 50

Reference: patent publication US10800791B2, “Triazole ACC inhibitors and uses thereof” (Gilead Apollo, LLC, priority 2015, dated 2020)
